Data from patent US8778966B2, “Quinolinone derivatives as PARP and tank inhibitors” (Janssen Pharmaceutica, NV, priority 2007, dated 2014).

These molecules were tested against T1, TANK-2 enzyme (Homo sapiens, UniProt Q9H2K2) (assay: In vitro Scintillation Proximity Assay (SPA) for TANK-2 inhibitory activity). Settings: read-out: in vitro SPA assay TANK-2 pIC50 (converted).
T1 construct: made in house
T1 sequence (Q9H2K2 1-1166): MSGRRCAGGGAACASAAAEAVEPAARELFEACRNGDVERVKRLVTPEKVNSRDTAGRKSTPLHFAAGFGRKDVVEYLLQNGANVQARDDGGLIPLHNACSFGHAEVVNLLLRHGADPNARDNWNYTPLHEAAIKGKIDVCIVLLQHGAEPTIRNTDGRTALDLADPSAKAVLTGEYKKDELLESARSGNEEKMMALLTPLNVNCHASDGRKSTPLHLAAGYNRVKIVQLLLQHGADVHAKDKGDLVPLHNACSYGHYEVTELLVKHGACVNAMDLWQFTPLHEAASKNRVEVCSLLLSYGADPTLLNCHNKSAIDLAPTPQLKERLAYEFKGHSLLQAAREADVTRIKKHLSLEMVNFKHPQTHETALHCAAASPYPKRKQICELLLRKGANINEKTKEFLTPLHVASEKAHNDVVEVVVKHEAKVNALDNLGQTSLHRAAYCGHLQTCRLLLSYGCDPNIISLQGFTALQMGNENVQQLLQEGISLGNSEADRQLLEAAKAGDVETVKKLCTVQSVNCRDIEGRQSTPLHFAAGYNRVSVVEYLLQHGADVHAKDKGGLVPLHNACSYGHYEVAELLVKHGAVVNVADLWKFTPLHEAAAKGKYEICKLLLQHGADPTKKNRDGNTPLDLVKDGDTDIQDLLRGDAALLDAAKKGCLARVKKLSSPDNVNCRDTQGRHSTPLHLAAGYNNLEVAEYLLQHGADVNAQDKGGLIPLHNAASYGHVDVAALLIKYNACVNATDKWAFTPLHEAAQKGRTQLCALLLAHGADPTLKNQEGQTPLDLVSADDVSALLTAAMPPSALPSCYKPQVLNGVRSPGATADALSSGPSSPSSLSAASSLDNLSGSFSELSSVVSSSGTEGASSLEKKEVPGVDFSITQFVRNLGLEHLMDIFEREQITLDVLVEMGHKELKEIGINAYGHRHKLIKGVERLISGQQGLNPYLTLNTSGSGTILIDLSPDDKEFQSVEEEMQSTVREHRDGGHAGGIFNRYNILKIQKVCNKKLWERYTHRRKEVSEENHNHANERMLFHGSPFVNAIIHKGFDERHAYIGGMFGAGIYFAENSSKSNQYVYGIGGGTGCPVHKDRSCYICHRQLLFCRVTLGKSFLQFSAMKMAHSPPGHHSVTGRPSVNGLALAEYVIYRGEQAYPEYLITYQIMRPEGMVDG
Format: biochemical
Procedure, shortened: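 Results are pIC50 values, with IC50 interpolated linearly around 50% of blank-subtracted control cpm. They come from a scintillation proximity read of TANK-2 (8 μg/ml) self-modification with [3H]-NAD+/NAD, incubated 120 min at room temperature in pH 7.4 Tris buffer containing MgCl2 and DTT. Compounds were first screened at 10^−5 M.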

Row | IC50 | SMILES
1 | 25.1 nM | CCc1cc2ccc([C@@](C)(C#N)Cc3ccccc3)cc2[nH]c1=O (single isomer, unassigned) [Compound 46]
2 | 158 nM | CCc1cc2ccc(C(C)(C#N)Cc3cccc(CN(C)C)c3)cc2[nH]c1=O (centres unmarked) [Compound 7]
3 | 79.4 nM | CCc1cc2ccc(C(C)(C#N)Cc3cccc(COC)c3)cc2[nH]c1=O (centres unmarked) [Compound 8]
4 | 63.1 nM | CCc1cc2ccc(C(C)(C#N)Cc3cccc(CO)c3)cc2[nH]c1=O (centres unmarked) [Compound 9]
5 | 39.8 nM | CCc1cc2ccc(C(C)(C#N)Cc3ccccc3)cc2[nH]c1=O (centres unmarked) [Compound 44]
6 | 31.6 nM | CCc1cc2ccc(C(C)(C#N)Cc3cccc(Br)c3)cc2[nH]c1=O (centres unmarked) [Compound 49]
7 | 39.8 nM | CCc1cc2ccc(C(C)(C#N)Cc3cccc(C#N)c3)cc2[nH]c1=O (centres unmarked) [Compound 51]
8 | 126 nM | CCc1cc2ccc(C(C)(C#N)Cc3cccc(CN4CCN(C)CC4)c3)cc2[nH]c1=O (centres unmarked) [Compound 57]
9 | 316 nM | CCc1cc2ccc(C(C)(C#N)Cc3cccc(CN4CCOCC4)c3)cc2[nH]c1=O (centres unmarked) [Compound 58]
10 | 79.4 nM | CCc1cc2ccc(C(C)(C#N)Cc3cccc(CNC)c3)cc2[nH]c1=O (centres unmarked) [Compound 59]
11 | 63.1 nM | CCc1cc2ccc(C(C)(C#N)Cc3cccc(CNCCOC)c3)cc2[nH]c1=O (centres unmarked) [Compound 60]
12 | 100 nM | CCc1cc2ccc(C(C)(C#N)Cc3cccc(CNCCN4CCOCC4)c3)cc2[nH]c1=O (centres unmarked) [Compound 61]
13 | 79.4 nM | CCc1cc2ccc(C(C)(C#N)Cc3cccc(C(=O)NCCOC)c3)cc2[nH]c1=O (centres unmarked) [Compound 62]
14 | 25.1 nM | CCc1cc2ccc(C(C)(C#N)Cc3cccc(N4CCNCC4)c3)cc2[nH]c1=O (centres unmarked) [Compound 64]
15 | 39.8 nM | CCc1cc2ccc(C(C)(C#N)Cc3cccc(N4CCCCC4)c3)cc2[nH]c1=O (centres unmarked) [Compound 65]
16 | 31.6 nM | CCc1cc2ccc(C(C)(C#N)Cc3cccc(N4CCN(C)CC4)c3)cc2[nH]c1=O (centres unmarked) [Compound 66]
17 | 126 nM | CCc1cc2ccc(C(C)(C#N)Cc3cccc(OCC4CC4)c3)cc2[nH]c1=O (centres unmarked) [Compound 67]
18 | 63.1 nM | CCc1cc2ccc(C(C)(C#N)Cc3cccc(OCCCN4CCOCC4)c3)cc2[nH]c1=O (centres unmarked) [Compound 68]
19 | 63.1 nM | CCc1cc2ccc(C(C)(C#N)Cc3cccc(OCCCN4CCN(C)CC4)c3)cc2[nH]c1=O (centres unmarked) [Compound 69]

The remaining lines, values behind:

Row | SMILES | IC50
20 | CCc1cc2ccc([C@](C)(C#N)Cc3ccccc3)cc2[nH]c1=O (single isomer, unassigned) [Compound 45] | 25.1 nM
21 | CCc1cc2ccc(C(C)(C#N)CC3COc4ccccc4O3)cc2[nH]c1=O (single isomer, unassigned) [Compound 47] | 316 nM
22 | CCc1cc2ccc([C@](C)(C#N)Cc3nc(OC)cc(OC)n3)cc2[nH]c1=O (single isomer, unassigned) [Compound 52] | 200 nM
23 | CCc1cc2ccc([C@@](C)(C#N)Cc3nc(OC)cc(OC)n3)cc2[nH]c1=O (single isomer, unassigned) [Compound 53] | 158 nM
24 | CCc1cc2ccc(C(C)(C#N)Cc3cccc(C#C[Si](C)(C)C)c3)cc2[nH]c1=O (centres unmarked) [Compound 1] | 3980 nM
25 | CCc1cc2ccc(C(C#N)(Cc3ccccc3)CC3CC3)cc2[nH]c1=O (centres unmarked) [Compound 28] | 316 nM
26 | CC(C#N)(Cc1ccccc1)c1ccc2cc(CO)c(=O)[nH]c2c1 (centres unmarked) [Compound 40] | 158 nM
27 | CCc1cc2ccc(C(C)(C#N)Cc3c(F)ccc(C)c3F)cc2[nH]c1=O (centres unmarked) [Compound 41] | 79.4 nM
28 | CCc1cc2ccc(C(C)(C#N)Cc3nnsc3Cl)cc2[nH]c1=O (centres unmarked) [Compound 42] | 79.4 nM
29 | CCc1cc2ccc(C(C)(C#N)Cc3nc(OC)cc(OC)n3)cc2[nH]c1=O (centres unmarked) [Compound 43] | 158 nM
30 | CCOP(=O)(OCC)c1cccc(CC(C)(C#N)c2ccc3cc(CC)c(=O)[nH]c3c2)c1 (centres unmarked) [Compound 50] | 200 nM
31 | CCc1cc2ccc(C(C)(C#N)CCOc3ccc([N+](=O)[O-])cc3)cc2[nH]c1=O (centres unmarked) [Compound 54] | 158 nM
32 | CCc1cc2ccc(C(C)(C#N)Cc3cccc(C(=O)N(C)C)c3)cc2[nH]c1=O (centres unmarked) [Compound 63] | 200 nM
